{"source": "paper PMC9459109", "about": "“A higher spectral range of beetle bioluminescence with infraluciferin” (Frontiers in Bioengineering and Biotechnology, 2022)", "conditions_in_all_cases": "saturating DL-infraluciferin (DL-iLH2) as co-substrate", "key": {"[1]": {"target": "WT Fluc (Photinus pyralis firefly luciferase, Ppy Fluc) (Photinus pyralis, UniProt P08659)", "sequence (P08659 whole entry)": "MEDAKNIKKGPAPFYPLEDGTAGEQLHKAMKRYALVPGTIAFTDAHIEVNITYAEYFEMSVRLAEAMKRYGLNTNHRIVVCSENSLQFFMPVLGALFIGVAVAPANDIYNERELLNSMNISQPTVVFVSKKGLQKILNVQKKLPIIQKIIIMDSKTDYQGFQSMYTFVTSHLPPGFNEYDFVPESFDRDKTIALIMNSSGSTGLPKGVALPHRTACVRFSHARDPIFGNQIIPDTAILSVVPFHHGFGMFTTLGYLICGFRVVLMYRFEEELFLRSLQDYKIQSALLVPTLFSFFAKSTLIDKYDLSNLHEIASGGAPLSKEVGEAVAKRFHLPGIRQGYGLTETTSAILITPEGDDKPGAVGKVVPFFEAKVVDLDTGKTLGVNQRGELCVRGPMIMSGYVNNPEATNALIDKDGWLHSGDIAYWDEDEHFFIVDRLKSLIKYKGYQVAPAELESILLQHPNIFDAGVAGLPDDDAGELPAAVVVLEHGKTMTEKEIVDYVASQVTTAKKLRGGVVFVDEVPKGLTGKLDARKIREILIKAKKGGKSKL"}, "[2]": {"target": "WT Fluc (Photinus pyralis firefly luciferase, Ppy Fluc) (Photinus pyralis, UniProt P08659, E354R/D357Y)", "sequence (P08659 whole entry E354R/D357Y)": "as the sequence (P08659 whole entry) above, with E354R, D357Y counted along it"}, "Eluc": {"tested_on": "T1, Eluc", "T1 construct": "10X N-terminal His tag, pET16b, E. coli BL21(DE3) pLysS, Ni-NTA purified; amplified from plasmid pLR6-Eluc", "assay": "bioluminescence, ATP […] to […], Hanes-Woolf plot", "format": "biochemical, Pyrearinus termitilluminans"}}, "data": [{"smiles": "Nc1ncnc2c1ncn2[C@@H]1O[C@H](COP(=O)(O)OP(=O)(O)OP(=O)(O)O)[C@@H](O)[C@H]1O", "note": "[ATP]", "values": [{"measurement": "Km", "setting": "[1]", "value": 160, "unit": "µM"}, {"measurement": "Km", "setting": "[2]", "value": "Kms for ATP in the presence of DL-iLH2 (ATP(iLH2))"}, {"measurement": "Km", "setting": "Eluc", "value": 200, "unit": "µM"}]}]}
